Assay results as given in patent US9017689B2, “Peptides for vaccine against birch allergy” (Circassia Limited, priority 2010, dated 2015).
Read-outs that look alike come from different tables or passages of the source. Ends that are not written are not given here.

Tests used:
[1] = system: Peripheral blood mononuclear cells (PBMCs); assay: Cytokine release assay (IL-10, IL-13, IFN-g multiplex bead assay); assay type: cell-based, human; conditions: proportion of subjects in which peptide induced IL-13 or IFN-g above 100 pg/ml; 47 birch allergic subjects; peptide 100 μg/ml; 5 days
Method: Peripheral blood mononuclear cells (PBMCs) were isolated from heparinised blood by Ficoll density gradient centrifugation. […] Following stimulation, culture supernatants (100 μl) were harvested for testing by multiplex bead assay.
Multiplex cytokine bead assays (IL-10, IL-13, Interferon gamma (IFN-g)) were performed on thawed culture supernatants according to the manufacturer's instructions. Single measurements were performed for each culture supernatant sample. After completion of the multiplex assay, individual cytokine levels were determined by interpolation from the standard curve generated in the assay.

[2] = Solubility screening in trehalose matrices pH 2.65 to 7.03; assay type: physicochemical; conditions: for solubility: read-out: Solubility [mg per ml];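 on all read-outs here: test items are peptides, each checked for solubility in every trehalose matrix, the matrices made up in distilled deionised water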
Method: The solubility of each of the nine peptides was evaluated in each of the matrices in accordance with Appendix 1.
Each matrix was prepared at a concentration of 10 mM of the buffering agent.
The procedure indicated is for the preparation of 100 mL of each buffer, but alternative volumes can be prepared by adjusting the quantities. • 0.1M stock solutions of sodium citrate and potassium dihydrogen phosphate were prepared. • Weight of trehalose dihydrate equivalent to 260 mM was transferred to an appropriate mixing vessel containing 70-80 mL of distilled deionised water and allowed to dissolve. • 10 mL of the appropriate stock 0.1M buffer solution was added to the mixing vessel and stirred. • The pH of the matrix was adjusted to the desired value by adding 2 mM hydrochloric acid or 0.1M sodium hydroxide as required. • The solutions were finally diluted to 100 g weight and the pH re-assessed.

[3] = 2 mM HCl and 260 mM trehalose dihydrate, pH 2.65
[4] = 10 mM potassium dihydrogen phosphate and 260 mM trehalose dihydrate, pH 6.03
[5] = 10 mM potassium dihydrogen phosphate and 260 mM trehalose dihydrate, pH 7.03
[6] = 10 mM sodium citrate and 260 mM trehalose dihydrate, pH 3.01
[7] = 10 mM sodium citrate and 260 mM trehalose dihydrate, pH 3.99
[8] = 10 mM sodium citrate and 260 mM trehalose dihydrate, pH 5.02
[9] = 10 mM sodium citrate and 260 mM trehalose dihydrate, pH 6.01
[10] = aqueous buffer, 10 mM potassium dihydrogen phosphate and 260 mM trehalose dihydrate, pH 6.03
[11] = aqueous buffer, 10 mM potassium dihydrogen phosphate and 260 mM trehalose dihydrate, pH 7.03
[12] = aqueous buffer, 10 mM sodium citrate and 260 mM trehalose dihydrate, pH 3.01
[13] = aqueous buffer, 10 mM sodium citrate and 260 mM trehalose dihydrate, pH 3.99
[14] = aqueous buffer, 10 mM sodium citrate and 260 mM trehalose dihydrate, pH 5.02
[15] = aqueous buffer, 10 mM sodium citrate and 260 mM trehalose dihydrate, pH 6.01
[16] = water, 2 mM HCl and 260 mM trehalose dihydrate, pH 2.65

| Sequence | Comments (solubility on preparation) [2, 3] | Solubility [mg per ml 'as is'] [2, 3] [mg per ml ‘as is’] | Solubility [μmol per ml] [2, 3] [μmol per ml] | Solubility after 24 Hours [2, 3] | Commute (solubility on preparation) [2, 4] | Solubility [mg per ml 'as is'] [2, 4] [mg per ml ‘as is’] | Solubility [μmol per ml] [2, 4] [μmol per ml] | Solubility after 24 Hours [2, 4] | Comments (solubility on preparation) [2, 5] | Solubility [mg per ml 'as is'] [2, 5] [mg per ml ‘as is’] | Solubility [μmol per ml] [2, 5] [μmol per ml] | Solubility after 24 Hours [2, 5] | Comments (solubility on preparation) [2, 6] | Solubility [mg per ml 'as is'] [2, 6] [mg per ml ‘as is’] | Solubility [μmol per ml] [2, 6] [μmol per ml] | Comments (solubility on preparation) [2, 9] | Solubility [mg per ml 'as is'] [2, 9] [mg per ml ‘as is’] | Solubility [μmol per ml] [2, 9] [μmol per ml] | Solubility after 24 Hours [2, 9] | solubility [2, 15] [µg/mL] | also measured |
| --- | --- | --- | --- | --- | --- | --- | --- | --- | --- | --- | --- | --- | --- | --- | --- | --- | --- | --- | --- | --- | --- |
| IKYMVIQGEAGAVIRGK (GIKYMVIQGEAGAVIRGK; Betulaceae) [Bir13, Bet v2-derived peptide] | – | – | – | – | – | – | – | – | – | – | – | – | – | – | – | – | – | – | – | – | % responders [1]: 23% |
| PGTIKKISFPEGFPFKYV [Bir04] | Completely dissolved | 20.50 | 8.639 | Completely dissolved | Completely dissolved | 9.86 | 4.155 | Completely dissolved | Completely dissolved | 21.50 | 9.061 | Completely dissolved | Completely dissolved | 22.58 | 9.516 | Completely dissolved. | 10.11 | 4.261 | Completely dissolved. | ≥ 8760 | Solubility after 24 Hours [2, 6]: Completely dissolved; Comments (solubility on preparation) [2, 7]: Completely dissolved; Solubility [mg per ml 'as is'] [2, 7]: 20.36 mg per ml ‘as is’; Solubility [μmol per ml] [2, 7]: 8.580 μmol per ml; Solubility after 24 Hours [2, 7]: Completely dissolved; Comments (solubility on preparation) [2, 8]: Completely dissolved; Solubility [mg per ml 'as is'] [2, 8]: 21.52 mg per ml ‘as is’; Solubility [μmol per ml] [2, 8]: 9.069 μmol per ml; Solubility after 24 Hours [2, 8]: Completely dissolved; solubility [2, 10]: ≥ 8540 µg/mL; solubility [2, 11]: ≥ 18600 µg/mL; solubility [2, 12]: ≥ 19600 µg/mL; solubility [2, 13]: ≥ 17600 µg/mL; solubility [2, 14]: ≥ 18600 µg/mL; solubility [2, 16]: ≥ 17800 µg/mL |
| SNEIKIVATPEGGSILK [Bir07C] | Completely dissolved | 11.48 | 5.747 | Completely dissolved | Completely dissolved in | 0.42 | 0.208 | Precipitated out, | Completely dissolved | 6.70 | 3.354 | Completely dissolved | Completely dissolved | 1.30 | 0.653 | Completely dissolved in | 0.35 | 0.174 | Precipitated out, | ≥ 306 | Solubility after 24 Hours [2, 6]: Completely dissolved; Solubility [mg per ml 'as is'] [2, 7]: 0.38 mg per ml ‘as is’; Solubility [μmol per ml] [2, 7]: 0.188 μmol per ml; Comments (solubility on preparation) [2, 8]: Completely dissolved; Solubility [mg per ml 'as is'] [2, 8]: 0.86 mg per ml ‘as is’; Solubility [μmol per ml] [2, 8]: 0.433 μmol per ml; Solubility after 24 Hours [2, 8]: Completely dissolved; solubility [2, 10]: ≥ 365 µg/mL; solubility [2, 11]: ≥ 5890 µg/mL; solubility [2, 12]: ≥ 1150 µg/mL; solubility [2, 13]: ≥ 330 µg/mL; solubility [2, 14]: ≥ 760 µg/mL; solubility [2, 16]: ≥ 10100 µg/mL |
| KEMGETLLRAVESYLLAHS [BIR09R] | – | – | – | – | – | – | – | – | – | – | – | – | – | – | – | Completely dissolved | 4.92 | 1.993 | Completely dissolved | ≥ 4280 | – |
| AERERIFKRFDANGEGK [Bir16A] | Completely dissolved | 24.86 | 10.652 | Completely dissolved | Completely dissolved | 21.54 | 9.229 | Completely dissolved | Completely dissolved | 21.98 | 9.418 | Completely dissolved | Completely dissolved | 7.17 | 3.074 | Completely dissolved | 25.86 | 11.080 | Completely dissolved | ≥ 22400 | Solubility after 24 Hours [2, 6]: Completely dissolved; Comments (solubility on preparation) [2, 7]: Completely dissolved; Solubility [mg per ml 'as is'] [2, 7]: 7.49 mg per ml ‘as is’; Solubility [μmol per ml] [2, 7]: 3.208 μmol per ml; Solubility after 24 Hours [2, 7]: Completely dissolved; Comments (solubility on preparation) [2, 8]: Completely dissolved; Solubility [mg per ml 'as is'] [2, 8]: 23.16 mg per ml ‘as is’; Solubility [μmol per ml] [2, 8]: 9.923 μmol per ml; Solubility after 24 Hours [2, 8]: Completely dissolved; solubility [2, 10]: ≥ 18700 µg/mL; solubility [2, 11]: ≥ 19100 µg/mL; solubility [2, 12]: ≥ 6220 µg/mL; solubility [2, 13]: ≥ 6490 µg/mL; solubility [2, 14]: ≥ 20100 µg/mL; solubility [2, 16]: ≥ 21600 µg/mL |
